Assays:
Format in all cases: biochemical
[1] = molecular target: T1, papain (Carica papaya, UniProt P00784); assay: Assay of inhibition of papain (N-CBZ-Pro-Phe-Arg-pNA substrate)
T1 sequence (P00784 134-345): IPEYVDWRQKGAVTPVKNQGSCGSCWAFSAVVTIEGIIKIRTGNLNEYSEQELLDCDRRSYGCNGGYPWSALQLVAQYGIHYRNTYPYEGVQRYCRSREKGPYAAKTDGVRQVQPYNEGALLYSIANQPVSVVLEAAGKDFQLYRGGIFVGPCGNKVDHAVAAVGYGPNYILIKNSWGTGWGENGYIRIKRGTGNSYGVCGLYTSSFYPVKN
Protocol: To a 170 μl of enzyme-buffer mixture (enzyme:papain, diluted to give 30 mOD/min, buffer: 0.2M potassium phosphate, 1.0 mM EDTA, 5 mML Cysteine, pH6.5) a 10 μl of inhibitor (dissolved in DMSO) was added. After 10 min of incubation at room temperature, 20 μl of 10 mM substrate (N-CBZ-Pro-Phe-Arg-pNA, dissolved in DMSO) was added to initiate reaction. Reading is followed up for 3 min at the Thermomax plate reader(absorbance at 405 nm).
A plot of percentage of inhibition vs inhibitor concentration is obtained, and IC50 is determined using a linear regression calculations (concentration of inhibitor which will give 50% inhibition).

[2] = molecular target: Cathepsin B (Rattus norvegicus, UniProt P00787); assay: In vitro assay of inhibition of Cathepsin B (N-CBZ-Phe-Arg-AMC substrate); conditions: r rat CathB, pH5.1, 10 min preincubation at room temperature; read-out: IC50, Cathepsin B
Protocol: After 10 min of incubation at room temperature a 20 μl of 5 mM substrate (N-CBZ-Phe-Arg-AMC, dissolved in DMSO) was added to initiate reaction. Reading is followed up for 10 min at the Fluoroscan reader (excitation at 380 nm, emission at 460 nm).

[3] = molecular target: Cathepsin L (Rattus norvegicus, UniProt P07154); assay: Assay of inhibition of Cathepsin L (N-CBZ-Phe-Arg-AMC substrate); conditions: r rat CathL, pH5.0, 10 min preincubation at room temperature; read-out: IC50, Cathepsin L
Protocol: After 10 min of incubation at room temperature a 20 μl of 1 mM substrate (N-CBZ-Phe-Arg-AMC, dissolved in DMSO) was added to initiate reaction. Reading is followed up for 10 min at the Fluoroscan reader (excitation at 380 nm, emission at 460 nm).

Sequence of Cathepsin B (P00787 80-339): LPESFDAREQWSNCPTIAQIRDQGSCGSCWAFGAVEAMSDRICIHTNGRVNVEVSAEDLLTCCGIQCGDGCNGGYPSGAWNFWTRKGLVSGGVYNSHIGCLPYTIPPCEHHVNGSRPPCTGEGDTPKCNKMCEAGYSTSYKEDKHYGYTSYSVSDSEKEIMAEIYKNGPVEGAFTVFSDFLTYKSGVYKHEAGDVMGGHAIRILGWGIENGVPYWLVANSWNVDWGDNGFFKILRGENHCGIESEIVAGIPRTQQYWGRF
Sequence of Cathepsin L (P07154 114-334): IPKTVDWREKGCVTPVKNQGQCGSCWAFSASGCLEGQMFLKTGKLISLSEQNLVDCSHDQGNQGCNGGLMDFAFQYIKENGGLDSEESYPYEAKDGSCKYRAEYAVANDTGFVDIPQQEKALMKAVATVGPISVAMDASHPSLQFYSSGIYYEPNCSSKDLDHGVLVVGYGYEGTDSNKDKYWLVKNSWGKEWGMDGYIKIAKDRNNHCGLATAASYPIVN

Row | IC50 [3] [µM] | SMILES | IC50 [1] [µM] | IC50 [2] [µM]
1 |  | CON1C[C@H](NC(=O)[C@H](Cc2ccccc2)NC(=O)OCc2ccccc2)C1=O [Example 1, (3S)-3-(N-benzyloxycarbonyl-L-phenylalanyl)-amino-1-methoxy-azetidin-2-one] | > 63 | > 63
2 |  | O=C(N[C@@H](Cc1ccccc1)C(=O)N[C@H]1CNC1=O)OCc1ccccc1 [Example 2, (3S)-3-(N-benzyloxycarbonyl-L-phenylalanyl)-amino-azetidin-2-one] | 15.8 | 4.81
3 |  | CON1C[C@@H](NC(=O)[C@H](Cc2ccccc2)NC(=O)OCc2ccccc2)C1=O [Example 3, (3R)-3-(N-benzyloxycarbonyl-L-phenylalanyl)-amino-1-methoxy-azetidin-2-one] | > 63 | 52
4 |  | O=C(N[C@@H](Cc1ccccc1)C(=O)N[C@@H]1CNC1=O)OCc1ccccc1 [Example 4, (3R)-3-(N-benzyloxycarbonyl-L-phenylalanyl)-amino-azetidin-2-one] | 57 | 
5 |  | C[C@H]1[C@H](NC(=O)[C@H](Cc2ccccc2)NC(=O)OCc2ccccc2)C(=O)N1S(=O)(=O)O [Example 5, Potassium (3S,4S)-3-(N-benzyloxycarbonyl-L-phenylalanyl)-amino-4-methyl-azetidin-2-one-1-sulfonate] | > 25 | > 25
6 |  | CC(=O)O[C@@H]1NC(=O)[C@H]1NC(=O)[C@H](Cc1ccccc1)NC(=O)OCc1ccccc1 [Example 7, (3S,4S)-3-(N-benzyloxycarbonyl-L-phenylalanyl)-amino-4-acetoxy-azetidin-2-one] | 0.275 | 
7 | 2.31 | CC(=O)O[C@@H]1NC(=O)[C@H]1NC(=O)[C@H](Cc1ccccc1)NC(=O)CCN1CCOCC1 [Example 13] |  | 39.2
8 | 0.082 | CC(=O)O[C@@H]1NC(=O)[C@H]1NC(=O)[C@H](Cc1ccccc1)NS(=O)(=O)c1ccc(C(C)(C)C)cc1 [Example 18] |  | 2.12
9 | 0.000108 | O=C(N[C@@H](Cc1ccccc1)C(=O)N[C@@H]1C(=O)N[C@H]1Sc1ccccc1)OCc1ccccc1 [Example 20, (3R,4S)-3-(N-benzyloxycarbonyl-L-phenylalanyl)-amino-4-phenylthio-azetidin-2-one] |  | 
10 | 0.000126 | O=C(N[C@@H](Cc1ccccc1)C(=O)N[C@@H]1C(=O)N[C@H]1S(=O)(=O)c1ccccc1)OCc1ccccc1 [Example 21, (3R,4S)-3-(N-benezyloxycarbonyl-phenylalanyl)-amino-4-phenylsulfonyl-azetidin-2-one] |  | 7.39
11 | 0.0556 | O=C(CCc1ccccc1)N[C@@H](Cc1ccccc1)C(=O)N[C@@H]1C(=O)N[C@H]1Oc1ccccc1 [Example 26, (3S,4S)-3-{N-(3-phenylpropionoyl)-L-phenylalanyl}-amino-4-phenoxy-azetidin-2-one] |  | 2.19
12 | 0.038 | O=C(CCc1ccccc1)N[C@@H](Cc1ccccc1)C(=O)N[C@@H]1C(=O)N[C@H]1Oc1ccc(C(=O)O)cc1 [Example 27B, (3S,4S)-3-{N-(3-phenylpropionoyl)-L-phenylalanyl}-amino-4-(4-carboxyphenoxy)-azetidin-2-one] |  | 21.8
13 | 0.228 | O=C(CCc1ccccc1)N[C@@H](Cc1ccccc1)C(=O)N[C@@H]1C(=O)N[C@H]1Oc1cccc(C(=O)O)c1 [Example 28, (3S,4S)-3-{N-(3-phenylpropionoyl)-L-phenylalanyl}-amino-4-(3-carboxyphenoxy)-azetidin-2-one] |  | 0.076
14 | 0.16 | O=C(CCc1ccccc1)N[C@@H](Cc1ccccc1)C(=O)N[C@@H]1C(=O)N[C@H]1Oc1ccc(C[C@H](NC(=O)OCc2ccccc2)C(=O)OC(c2ccccc2)c2ccccc2)cc1 [Example 29A, (3S,4S)-3-{N-(3-phenylpropionoyl)-L-phenylalanyl}-amino-4-{4-(L-2-N-benzyloxycarbonylamino-2-diphenylmethoxycarbonyl-ethyl)-phenoxy}-azetidin-2-one] |  | 0.59
15 | 5.26 | N[C@@H](Cc1ccccc1)C(=O)N[C@@H]1C(=O)N[C@H]1Oc1ccc(C(=O)O)cc1 [Example 30B, (3S,4S)-3-(L-phenylalanyl)-amino-4-(4-carboxyphenoxy)-azetidin-2-one] |  | > 68
16 | 0.067 | O=C(N[C@@H](Cc1ccccc1)C(=O)N[C@@H]1C(=O)N(S(=O)(=O)O)[C@H]1Sc1ccccc1)OCc1ccccc1 [Example 31, (3R,4S)-3-(N-benzyloxycarbonyl-L-phenylalanyl)-amino-4-phenylthio-azetidin-2-one-1-sulfonic acid] |  | 8.43
17 | 0.0168 | O=C(N[C@@H](Cc1ccccc1)C(=O)N[C@@H]1C(=O)N[C@H]1Sc1ccncc1)OCc1ccccc1 [Example 34, (3S,4S)-3-(N-benzyloxycarbonyl-L-phenylalanyl)-amino-4-(pyrid-4-yl) thio-azetidin-2-one] |  | 0.33

Row | SMILES | IC50 [3] [µM] | IC50 [1] [µM] | IC50 [2] [µM]
18 | CC(=O)O[C@@H]1NC(=O)[C@H]1NC(=O)[C@H](Cc1ccccc1)NC(=O)CCc1ccccc1 [Example 10, (3S,4S)-3-{N-(3-phenylpropionoyl)-L-phenylalanyl}-amino-4-acetoxy-azetidin-2-one] | 0.035 |  | 0.47
19 | CC(=O)O[C@@H]1NC(=O)[C@H]1NC(=O)[C@H](Cc1ccccc1)NS(=O)(=O)/C=C/c1ccccc1 [Example 11] | 1.84 |  | 1.66
20 | CC(=O)O[C@@H]1NC(=O)[C@H]1NC(=O)[C@H](Cc1ccccc1)NC(=O)N1CCOCC1 [Example 12, (3S,4S)-3-{N-(morpholin-yl-carbonyl)-L-phenylalaninyl}-amino-4-acetoxy-azetidin-2-one] | 1.58 |  | 7.4
21 | CC(=O)O[C@@H]1NC(=O)[C@H]1NC(=O)[C@H](Cc1ccccc1)NC(=O)CCc1cccnc1 [Example 14, (3S,4S)-3-{N-(3-pyrid-3-yl-propionoyl)-L-phenylalanyl}-amino-4-acetoxy-azetidin-2-one] | 1.29 |  | 24.5
22 | CC(=O)Oc1ccc(OCC(=O)N[C@@H](Cc2ccccc2)C(=O)N[C@@H]2C(=O)N[C@H]2OC(C)=O)cc1 [Example 15, (3S,4S)-3-[N-{2-(4-acetoxyphenoxy)-ethanoyl}-L-phenylalanyl]-amino-4-acetoxy-azetidin-2-one] | 2.07 |  | 6.33
23 | CC(=O)O[C@@H]1NC(=O)[C@H]1NC(=O)[C@H](Cc1ccccc1)NC(=O)c1cc2ccccc2o1 [Example 16, (3S,4S)-3{N-(benzofuran-2-yl-carbonyl)-L-phenylalanyl}-amino-4-acetoxy-azetidin-2-one] | 0.035 |  | 5.68
24 | CC(=O)O[C@@H]1NC(=O)[C@H]1NC(=O)[C@H](Cc1ccccc1)NC(=O)/C=C/c1cccs1 [Example 17, (3S,4S)-3-[N-{3-(thiophen-2-yl)-trans-prop-2-enoyl}-L-phenylalanyl]-amino-4-acetoxy-azetidin-2-one] | 0.0315 |  | 5.37
25 | CC(=O)O[C@@H]1NC(=O)[C@H]1NC(=O)[C@H](Cc1ccccc1)NS(=O)(=O)c1ccc2ccccc2c1 [Example 19, (3S,4S)-3-{N-(naphthalen-2-yl-sulfonyl)-L-phenylalanyl}-amino-4-acetoxy-azetidin-2-one] | 0.416 |  | 7.22
26 | CC(=O)O[C@H]1[C@H](NC(=O)[C@H](Cc2ccccc2)NC(=O)OCc2ccccc2)C(=O)N1S(=O)(=O)O [Example 32, (3S,4S)-3-(N-benzyloxycarbonyl-L-phenylalanyl)-amino-4-acetoxy-azetidin-2-one-1-sulfonic acid] | 0.026 |  | 0.368
